Results on nine molecules are retold here after paper PMC5354587, “Ergosterone-coupled Triazol molecules trigger mitochondrial dysfunction, oxidative stress, and acidocalcisomal Ca^2+ release in Leishmania mexicana promastigotes” (Microbial Cell, 2015).

Common to all, as to assay type: cell-based
In assay [1] the test system is Leishmania mexicana promastigotes. Put plainly: Half-inhibitory concentration on parasites, modified MTT method. The note with it: for IC50: read-out: IC50 on L. mexicana promastigotes; for growth inhibition on promastigotes: concentrations even higher than 100 μM; for Selectivity index: promastigotes compared to human dermic fibroblasts. The protocol:
Parasites were treated with different concentrations of the synthesized compounds for 48 hours to determine their cytotoxic effect. A dose dependent growth inhibition was observed after this time.
(§1) Promastigotes of Leishmania mexicana Bel 21 strain were cultured at 26°C in Liver Infusion Tryptone (LIT) medium supplemented with 10% fetal bovine serum (Internegocios). Primary cultures of human dermic fibroblasts were performed at 37°C in DMEN medium (Sigma) supplemented with 10% fetal bovine serum in a CO2 incubator at 5% CO2.
(§2) To determine the IC50 in parasites and human fibroblasts the protocol described by was followed. Briefly, a suspension of 2 x 10^6 parasites per mL^-1 or 5 x 10^3 fibroblasts per well were transferred into 96 well plates and different concentrations of the compounds were added. Plates were incubated under the corresponding culture conditions for 48 or 72 hours for L. mexicana or human fibroblasts, respectively. Thereafter, parasites plates were centrifuged prior to the elimination of the supernatant. Cell viability was measured by the modified MTT method, where cells were incubated with the MTT substrate at 0.2 mg x mL^-1 for 4 hours. Colored crystals formed were solubilized in DMSO and absorbance was measured at 570 nm. IC50 was obtained from a dose response curve using the software OriginLab Pro 6.0^©.
For orientation: Formazan colour is commonly taken as a measure of viable cells.

For assay [2] the test system is unchanged. The experiment in a line: Reactive oxygen species (superoxide) determination with dihydroethidium. Particulars: Erg-GTr/Erg-GTr2 treated cells; data not shown. The method, then: To evaluate the intracellular level of reactive oxygen species (ROS) after Erg-GTr or Erg-GTr2 treatment, parasites were incubated with dihydroethidium, which become oxidized in the presence of the superoxide anion to form the fluorescent DNA-intercalating agent ethidium, i.e. the emitted fluorescence is proportional to the amount of ROS present. Figure 6A represents a ROS production kinetics analysis performed between 6 and 48 hours post-treatment with both molecules. […] In fact, ROS levels increased already during the first 6 hours of treatment when compared with control cells, which maintained a ROS level lower than 2% throughout the whole kinetic study.
Figure 6 FIGURE 6: Superoxide production after Erg-GTr or Erg-GTr2 treatment. Parasites were treated with 1.4 μM Erg-GTr or 2.3 μM Erg-GTr2 or DMSO (control cells), harvested after different time points and then prepared to measure intracellular superoxide using dyhidroethidium. (A) Superoxide production kinetics in control and treated parasites. […] (B) Representative FACS histograms showing the superoxide-sensitive fluorescence of control and treated promastigotes after 24 hours incubation. The percentages were determined using the WinMDI software. […]
Dihydroethidium (Invitrogen) was used to detect the intracellular level of superoxide anion. […] Thereafter, samples were washed with PBS and immediately analyzed in a Beckman Coulter Cytometer.

The test system is the same in assay [3]. The experiment in a line: Mitochondrial membrane potential, Mitotracker Red CMXROS, flow cytometry. The method, then: In order to determine the energetic state of the mitochondrion after parasites treatment, the compound Mitotraker Red CMXROS was used. As described in the Materials and Methods section, parasites were treated for 6, 16, 24, and 48 hours with each molecule at its IC50, then incubated with Mitotraker Red CMXROS (50 nM) for 30 minutes under culture conditions, and finally analyzed by flow cytometry. […] Additionally, to rule out if Erg itself (the non-azole fraction of the conjugates) could be responsible for this hyperpolarization, parasites were treated with this compound and ΔΨmit was monitored for up to 48 hours by flow cytometry.
Mitotracker CMX Red(Invitrogen) was used to determine the mitochondrial membrane potential (Ψmit) of treated parasites. After 6, 16, 24, and 48 hours treatment, cells were incubated in culture medium with 50 nM Mitotracker CMX Red for 30 minutes at 26°C in the dark. Thereafter, parasites were washed twice with PBS, resuspended in 1 mL buffer, and analyzed using a cytometer (Beckman Coulter). Parasites incubated with valinomycin (500 nM for 30 minutes) were used as positive control. To evaluate the effect of ergosterone coupled molecules on the mitochondrial membrane potential immediately after molecule addition we used the fluorophore rhodamine-123, a mitochondrion-specific cationic dye, which distributes across the inner mitochondrial membranes strictly according to their membrane potential, as described before. Briefly, 1 x 10^7 parasites were washed twice with rhodamine 123 loading buffer (20 mM Tris-HCl, 130 mM KCl, 1 mM MgCl2, and 2 mM KH2PO4) and incubated with 20 μM rhodamine 123 for 45 minutes at 29°C under agitation. Samples were washed twice, resuspended in 500 μL of the same buffer, and transferred to a quartz cuvette. Fluorescence (ex 488 nm and em 530 nm) was registered in a Hitachi F-7000 Spectrofluorimeter. FCCP was used as control for mitochondrial membrane depolarization.
(In flow cytometry, cells or beads pass a laser one at a time.)

The next assay relates to human dermic fibroblasts. The experiment in a line: Half-inhibitory concentration on human fibroblasts, modified MTT method. Particulars: 72 hours. The method, then: as §1, §2
For assay [4], the system named is Leishmania mexicana promastigotes. The experiment in a line: Alkalinization of acidocalcisomes, acridine orange. Particulars: Erg-GTr 1.4 μM or Erg-GTr2 2.4 μM; nigericin 2 μM as control. The source says:
Leishmania can store Ca^2+ in different compartments like the endoplasmic reticulum, the mitochondrion, and the acidocalcisomes. The major Ca^2+ reservoir is represented by this last organelle. In order to analyze if the [Ca^2+]cyt increase is due to its release from acidocalcisomes, parasites were charged with acridine orange and assayed fluorimetrically. Since acridine orange accumulates in acidic compartments, it allows detection of alkalinization.
To evaluate the effect of ergosterone coupled molecules on the Ca^2+ reservoir organelle acidocalcisome, parasites were stained with acridine orange as described previously. Briefly, 1 x 10^7 parasites were washed twice with loading buffer (20 mM Tris-HCl, 130 mM KCl, 1 mM MgCl2, and 2 mM KH2PO4) and incubated for 5 minutes with acridine orange (5 μM). Samples were washed twice, resuspended in 500 μL of the same buffer, and transferred to a stirred quartz cuvette at 29°C. Fluorescence (ex 488 nm and em 530 nm) was registered in a Hitachi F-7000 Spectrofluorimeter. Nigericin was used as control for acidocalcisome alkalinization.

Where two headings read alike, the source gives them in different places.

As a reminder, the IC50 is the midpoint of a concentration-inhibition curve. Regarding `NNC(=O)n1cnnc1` [GTr, [1,2,4]triazole-4-carboxylic acid hydrazide], the IC50 in assay [1] (Leishmania mexicana, 48 h) came out at 158 µM. Further, in assay [1] (48 hours), the “growth inhibition on promastigotes” value is “did not show inhibition”.
The corresponding values for `C[N+](C)(C)CC(=O)NN` [GT, hydrazinocarbonylmethyl-trimethyl-ammonium chloride, reference compound] are over 200 µM and “did not show inhibition”.
The corresponding values for `NNC(=O)[n+]1ccccc1.[Cl-]` [GP, 1-hydrazinocarbonyl-pyridinium chloride, reference compound] are over 200 µM and “did not show inhibition”.
For `CC(=O)N[C@@H](CS)C(=O)O` [N-acetyl-cysteine, reference compound], the “effect of ROS scavenger on ROS formation” value in assay [2] is given as “revert partially”. Also, in assay [3] (Erg-GTr/Erg-GTr2 treated cells, data not shown), the “effect of ROS scavenger on mitochondrion hyperpolarization” value is listed as “did not prevent”.
With `CC(C)C(C)C=CC(C)C1CCC2C3=CC(=O)C4(O)CC(=O)CCC4(C)C3CCC21C` (stereo not shown) [Ergosterone, 5-hydroxy-10,13-dimethyl-17-(1,4,5-trimethyl-hex-2-enyl)-1,4,5,9,10,11,12,13,14,15,16,17-dodecahydro-2H-cyclopenta[a]phenanthrene-3,6-dione], the concentration for half-maximal inhibition (IC50) worked out at 28.3 ± 8.5 µM in the assay with human dermic fibroblasts (Fibroblast) and 9 ± 0.7 µM in assay [1] (Leishmania mexicana, 48 h). The “effect on inner mitochondrial membrane potential (ΔΨmit)” value in assay [3] (treatment up to 48 hours, flow cytometry) is listed as “No differences”. The molecule also had a Selectivity index in assay [1] of 3.1.
“1-[5-hydroxy-10-methyl-3-oxo-17-(1,4,5-trimethyl-hex-2-enyl)-1,2,3,4,5,9,10,11,12,13,14,15,16,17-tetradecahydro-cyclopenta[a]phenanthren-6-ylidene-hydrazinocarbonyl]-pyridinium chloride [Erg-GP]”: the IC50 amounted to 44.5 µM in the assay with human dermic fibroblasts and 42.4 ± 2.8 µM in assay [1] (48 hours, MTT). Further, the Selectivity index in assay [1] came to 1.0.
The corresponding values for “[5-hydroxy-10-methyl-3-oxo-17-(1,4,5-trimethyl-hex-2-enyl)-1,2,3,4,5,9,10,11,12,13,14,15,16,17-tetradecahydro-cyclopenta[a]phenanthren-6-ylidene-hydrazinocarbonylmethyl]-trimethyl-ammonium chloride [Erg-GT]” are 36.4 µM, 10.4 ± 0.2 µM and 3.5.
With `CO[C@@H]1C[C@@H](C[C@H]2CC[C@H](C)[C@H]([C@@H](C)C(=O)O)O2)O[C@]2(O[C@](C)([C@H]3CC[C@@](C)([C@@H]4O[C@@H]([C@H]5O[C@@](O)(CO)[C@H](C)C[C@@H]5C)C[C@@H]4C)O3)C[C@H]2C)[C@@H]1C` [nigericin, reference compound], the “acridine orange fluorescence (acidocalcisome alkalinization)” value in assay [4] was “further reduction of the acidity”.
On to `CC(C)C(C)C=CC(C)C1CCC2C3=CC=C4CC(O)CCC4(C)C3CCC21C` (stereo not shown) [Ergosterol, 10,13-dimethyl-17-(1,4,5-trimethyl-hex-2-enyl)-2,3,4,9,10,11,12,13,14,15,16,17-dodecahydro-1H-cyclopenta[a]phenanthren-3-ol, reference compound], for which the half-maximal inhibitory concentration (IC50) is 27 ± 3.5 µM in the assay on human dermic fibroblasts (Fibroblast) and 33.8 ± 4.7 µM in assay [1] (Leishmania mexicana, 48 h). The Selectivity index in assay [1] is listed as 0.8.
